{"source": "patent US20040121474A1", "about": "“Detection and evaluation of chemically-mediated and ligand-mediated t-cell activation using optophoretic analysis” (Genoptix, Inc, priority 2002, published 2004)", "assay_type_in_all_cases": "cell-based", "key": {"U937 cells [1]": {"test_system": "U937 cells", "test": "Escape velocity, PMA inhibition by bisindolymaleimide", "conditions": "10 ng/ml PMA only, four hours", "source_text": "The objective of this experiment was to test the effect of bisindolymaleimide on cells exposed to PMA. Bisindolymaleimide is a Protein Kinase C inhibitor and should block the effect of PMA on U937 cells and their escape velocities. As shown in this and prior experiments, exposure of U937 cells to PMA results in an increase in the escape velocity of the cells. Therefore, it is anticipated that addition of bisindolymaleimide will reduce or eliminate the increase in escape velocity caused by PMA. This has in fact been observed in the data shown below.\nBisindolymaleimide was tested at two concentrations: 200 ng/ml and 50 ng/ml. Samples not treated with bisindolymaleimide received an equivalent amount of the carrier, MeOH, as a control. […] The concentration of PMA tested was 10 ng/ml. Samples not receiving PMA received DMSO.\nOnce the flasks were prepared, they were incubated at 37° C. 5% CO2 for four hours. At the four hour timepoint, 300 μl of cells were removed from each flask and pelleted at 5000 rpm for 5 minutes. The cells were then resuspended in 6 ml PBS/1% BSA and 60 μl trypan blue."}, "U937 cells [2]": {"test_system": "U937 cells", "test": "Quantitative determination of PKC activation, escape velocity dose response", "conditions": "five hours", "protocol": "Optophoretic analysis was used to develop a full dose response curve for U937 cells treated with PMA. U937 cells were incubated with varying amounts of PMA dissolved in DMSO. The following concentrations of PMA were tested: 0.156 ng/ml, 0.312 ng/ml, 0.625 ng/ml, 1.25 ng/ml, 2.5 ng/ml, 5 ng/ml, and no PMA (control). […] Escape velocity measurements were then taken using a 100 mW laser having a beam diameter of 28 pixels. Table 9 reproduced below sets forth the measured escape velocities (μm/sec) for each of the various PMA concentrations.\nThe method described above may be used to quantitatively determine the level of PKC activation in cells in response to exposure to PKC activating compound using a moving optical gradient. The method includes the steps of first providing a series of cell samples and exposing the series of cell samples to different concentrations of the PKC activating compound. After a period of incubation from about one to several hours, the cells and the optical gradient are moved relative to each other so as to cause displacement of at least some of the cells. Next, the displacement of at least a portion of the displaced cells is measured for each of the different concentrations. […] From the dose response curve, one is able to calculate one or more numerical values that correlate to PKC potency and/or efficacy. For example, the dose response curve can be used to calculate the EC50, Hill slope, or plateau value relative to a standard compound."}, "HL-60 cells [3]": {"test_system": "HL-60 cells", "test": "Fast scan analysis, differentiation of HL-60 cells", "conditions": "400 ng/ml PMA, differentiation into monocytes/macrophages", "protocol": "Fast scan analysis was also performed on HL-60 cells that were treated with PMA and DMSO. A time course evaluation of PMA treated HL-60 cells was performed with fast scan data taken at 16 hours, 24 hours, 40 hours, and 72 hours post-treatment with 400 ng/ml PMA. A control sample of HL-60 cells was also tested using EtOH as the vehicle for purposes of comparing the differentiated cells with the undifferentiated HL-60 cells. The PMA-treated and control cells were harvested and trypsinized. The samples were then resuspended in PBS/1% BSA. A set of samples was also obtained and left as pellets at 4° C. for subsequent FACS analysis.\nA time course evaluation of DMSO treated HL-60 cells was performed with fast scan data taken at 16 hours, 24 hours, 40 hours, and 70 hours post-treatment with 1% DMSO. A control sample of HL-60 cells was also tested for purposes of comparing the differentiated cells with the undifferentiated HL-60 cells. The DMSO-treated and control cells were then harvested and resuspended in PBS/1% BSA. A set of samples was also obtained and left as pellets at 4° C. for subsequent FACS analysis."}, "HL-60 cells [4]": {"test_system": "HL-60 cells", "test": "Escape velocity, differentiation of HL-60 cells", "conditions": "200 ng/ml PMA", "protocol": "Initial tests were performed using HL-60 cells treated with PMA. HL-60 cells were seeded at about 1-3×10^6 cells per well in six well plates. The cells were treated with 200 ng/ml PMA while the control cells were treated with ethanol (EtOH) vehicle for four hours at 37° C. After incubation for four hours the treated cells were washed with PBS and re-fed with growth media. The treated HL-60 cells were then allowed to differentiate for 72 hours in normal growth media. After the 72 hour period, the untreated control cells were collected by centrifugation, washed with PBS and pelleted for resuspension at 1.5×10^6 cells/ml in PBS/1% BSA. Treated cells were trypsinized and collected by centrifugation then washed in PBS and pelleted for resuspension at 1×10^6 cells/ml in PBS/1% BSA. The cells were then subjected to Optophoretic analysis by measuring the escape velocities of the treated and control cells. Table 23 shown below illustrates the measured escape velocities of the undifferentiated and differentiated cells at 72 hours post treatment."}}}
{"compound": "CCCCCCCCCCCCCC(=O)O[C@@H]1[C@@H](C)[C@@]2(O)[C@@H](C=C(CO)C[C@]3(O)C(=O)C(C)=C[C@@H]23)[C@@H]2C(C)(C)[C@]12OC(C)=O", "note": "[PMA, phorbol 12 myristate 13-acetate]", "values": [{"measurement": "Escape velocity Ave.", "setting": "U937 cells [1]", "value": 15.4, "unit": "μm/sec"}, {"measurement": "Escape velocity Average", "setting": "U937 cells [2]; 1.25 ng/ml PMA", "value": 17.0, "unit": "μm/sec"}, {"measurement": "Escape velocity Average", "setting": "U937 cells [2]; 2.5 ng/ml PMA", "value": 17.0, "unit": "μm/sec"}, {"measurement": "Escape velocity Average", "setting": "U937 cells [2]; 5 ng/ml PMA", "value": 17.3, "unit": "μm/sec"}, {"measurement": "Escape velocity Average", "setting": "U937 cells [2]; .156 ng/ml PMA", "value": 15.8, "unit": "μm/sec"}, {"measurement": "Escape velocity Average", "setting": "U937 cells [2]; .312 ng/ml PMA", "value": 16.0, "unit": "μm/sec"}, {"measurement": "Escape velocity Average", "setting": "U937 cells [2]; .625 ng/ml PMA", "value": 16.6, "unit": "μm/sec"}, {"measurement": "EC50", "setting": "U937 cells [2]; Homo sapiens, U-937, 5 h, escape velocity, U937 cells, read-out: EC50 value of the PMA dose response curve (FIG. 53)", "value": "~0.625", "unit": "ng/mL"}, {"measurement": "PMA concentrations at which a significant shift in escape velocity is seen", "setting": "U937 cells [2]; U937 cells", "value": "exceeding 0.625 ng/ml"}, {"measurement": "time after treatment at which Optophoretic analysis detected cellular differentiation", "setting": "HL-60 cells [3]", "value": "≤ 16", "unit": "h"}, {"measurement": "Escape velocity Average", "setting": "HL-60 cells [4]; HL-60 + PMA at 72 hours (differentiated), control 11.9", "value": 14.0, "unit": "μm/sec"}, {"measurement": "increase in measured escape velocity as compared to the control cells", "setting": "HL-60 cells [4]; HL-60 cells, 72 hours", "value": "about 2 μm/se c"}]}
